Test results published in patent US5464861A, “2-thioindoles (selenoindoles) and related disulfides (selenides) which inhibit protein tyrosine kinases and which have antitumor properties” (Warner-Lambert, priority 1993, dated 1995).
Like-named read-outs stand apart in the source and are kept apart here.

Legend:
[1] = test system: bFGF mediated tyrosine phosphorylation; assay: bFGF mediated tyrosine phosphorylation, Western blot; assay type: cell-based, mouse
Method: (§1) Swiss 3T3 fibroblasts, that were growth arrested in serum-free media for 24 hours, were exposed to various concentrations of compound for 2 hours. The cells were then exposed to individual growth factors for 5 minutes and proteins that were phosphorylated on tyrosine in response to the mitogens and were detected by Western blotting techniques using phosphotryosine antibodies. Similar techniques were used for tumor cell lines except the time in serum-free media was increased.

MDA-231 breast = assay: Growth inhibition assay, MDA-231; assay type: cell-based; conditions: Homo sapiens, MDA-MB-231, read-out: IC50 cell growth inhibition
[2] = test system: PDGF mediated autophosphorylation of the PDGF receptor and tyrosine phosphorylation of other endogenous proteins; assay: PDGF mediated tyrosine phosphorylation, Western blot; assay type: cell-based, mouse; design: dose or concentration left out as unconfirmed; conditions: Swiss 3T3
Method: as §1

HT-29 colon = assay: Growth inhibition assay, HT-29; assay type: cell-based; conditions: Homo sapiens, read-out: IC50 cell growth inhibition
A549 lung = assay: Growth inhibition assay, A549; assay type: cell-based; conditions: Homo sapiens, read-out: IC50 cell growth inhibition
MDV-7 breast = assay: Growth inhibition assay, MDV-7; assay type: cell-based; conditions: Homo sapiens, read-out: IC50 cell growth inhibition
MDA 468 breast = assay: Growth inhibition assay, MDA 468; assay type: cell-based; conditions: Homo sapiens, read-out: IC50 cell growth inhibition
A431 epidermoid = assay: Growth inhibition assay, A431; assay type: cell-based; conditions: Homo sapiens, A-431, read-out: IC50 cell growth inhibition
[3] = test system: human tumor cell lines as well as the Swiss 3T3 fibroblasts; assay: Growth inhibition of a variety of human tumor cell lines; assay type: cell-based, human; mouse
Method: Swiss 3T3 mouse fibroblasts were maintained in dMEM/F12 media containing 10% fetal calf serum. Two mL of cells at a density of 1×10^4/mL were placed in 24-well plates plus or minus various concentrations of the inhibitor. The cells were grown at 37° C. under 5% CO2 for 72 hours and then counted by Coulter counter. The data were expressed as the concentration of inhibitor necessary to decrease the growth rate by 50%.

[4] = test system: Swiss 3T3 mouse fibroblasts; assay: Growth inhibition assay, Swiss 3T3 fibroblasts; assay type: cell-based
Method: Swiss 3T3 mouse fibroblasts were maintained in dMEM/F12 media containing 10% fetal calf serum. […] The cells were grown at 37° C. under 5% CO2 for 72 hours and then counted by Coulter counter. The data were expressed as the concentration of inhibitor necessary to decrease the growth rate by 50%.

Swiss 3T3 fibroblasts = assay: Growth factor mediated mitogenesis (tritiated thymidine incorporation); assay type: cell-based; conditions: Mus musculus, Swiss-3T3, 24 h
Method: Swiss 3T3 fibroblasts, that were growth arrested in serum-free media for 24 hours, were exposed to various concentrations of compound for 2 hours. The cells were then exposed to individual growth factors for 24 hours and mitogenesis assessed by measuring tritiated thymidine incorporation into DNA.
The concentration of 21 and 70 required to inhibit growth factor mediated mitogenesis by 50% for the following growth factors was as follows: […]

[5] = molecular target: T1, epidermal growth factor receptor tyrosine kinase (Homo sapiens, UniProt P00533); assay: EGF receptor tyrosine kinase assay (P^32 incorporation in GAT); assay type: biochemical; conditions: Table 2, EGRF-R; IC50 entries; read-out: IC50 (EGFR TK)
T1 construct: A native 170,000 epidermal growth factor receptor-kinase complex from shed plasma membrane vesicles; endogenous in cells
How it was run: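 Receptor pre-activated with 150 ng EGF for 10 min at room temperature. ATP with or without compound then added and incubated 10 min at room temperature.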

[6] = test system: EGF mediated phosphorylation of a variety of endogenous proteins; assay: EGF mediated tyrosine phosphorylation, Western blot; assay type: cell-based, mouse; design: dose or concentration left out as unconfirmed; conditions: Swiss 3T3
Method: as §1

[7] = molecular target: T2, human PDGF β receptor intracellular tyrosine kinase domain (Homo sapiens, UniProt P09619); assay: PDGF receptor tyrosine kinase inhibition assay (P^32 incorporation in Glu-Tyr); assay type: biochemical; conditions: at 100 μM; PDGF-R; read-out: % Inhibition at 100 μM (PDGFR TK)
T2 construct: human PDGF β receptor intracellular tyrosine kinase domain; made in house; host or cells: SF9 insect cells, recombinant baculovirus; cell lysates used
Method: Recombinant baculovirus containing human PDGF β receptor intracellular tyrosine kinase domain was used to infect SF9 cells to overexpress the protein, and cell lysates were used for the assay. The ability of the tyrosine kinase to phosphorylate glutamate tyrosine substrate in the presence of P^32 -ATP and inhibitor was measured by counting the incorporation of P^32 in Glu-Tyr in TCAprecipitable material.

[8] = test system: human epidermoid carcinoma A431 cells; conditions: J. Antibiot. 1986;39:170; cited from earlier work
[9] = test system: human mammary carcinoma MCF-7 and some esophageal tumors; conditions: nude mice, dose-dependent; cited from earlier work
[10] = Swiss 3T3, 72 hours, Table 2, read-out: IC50 growth inhibition

T1 sequence (P00533 25-1210): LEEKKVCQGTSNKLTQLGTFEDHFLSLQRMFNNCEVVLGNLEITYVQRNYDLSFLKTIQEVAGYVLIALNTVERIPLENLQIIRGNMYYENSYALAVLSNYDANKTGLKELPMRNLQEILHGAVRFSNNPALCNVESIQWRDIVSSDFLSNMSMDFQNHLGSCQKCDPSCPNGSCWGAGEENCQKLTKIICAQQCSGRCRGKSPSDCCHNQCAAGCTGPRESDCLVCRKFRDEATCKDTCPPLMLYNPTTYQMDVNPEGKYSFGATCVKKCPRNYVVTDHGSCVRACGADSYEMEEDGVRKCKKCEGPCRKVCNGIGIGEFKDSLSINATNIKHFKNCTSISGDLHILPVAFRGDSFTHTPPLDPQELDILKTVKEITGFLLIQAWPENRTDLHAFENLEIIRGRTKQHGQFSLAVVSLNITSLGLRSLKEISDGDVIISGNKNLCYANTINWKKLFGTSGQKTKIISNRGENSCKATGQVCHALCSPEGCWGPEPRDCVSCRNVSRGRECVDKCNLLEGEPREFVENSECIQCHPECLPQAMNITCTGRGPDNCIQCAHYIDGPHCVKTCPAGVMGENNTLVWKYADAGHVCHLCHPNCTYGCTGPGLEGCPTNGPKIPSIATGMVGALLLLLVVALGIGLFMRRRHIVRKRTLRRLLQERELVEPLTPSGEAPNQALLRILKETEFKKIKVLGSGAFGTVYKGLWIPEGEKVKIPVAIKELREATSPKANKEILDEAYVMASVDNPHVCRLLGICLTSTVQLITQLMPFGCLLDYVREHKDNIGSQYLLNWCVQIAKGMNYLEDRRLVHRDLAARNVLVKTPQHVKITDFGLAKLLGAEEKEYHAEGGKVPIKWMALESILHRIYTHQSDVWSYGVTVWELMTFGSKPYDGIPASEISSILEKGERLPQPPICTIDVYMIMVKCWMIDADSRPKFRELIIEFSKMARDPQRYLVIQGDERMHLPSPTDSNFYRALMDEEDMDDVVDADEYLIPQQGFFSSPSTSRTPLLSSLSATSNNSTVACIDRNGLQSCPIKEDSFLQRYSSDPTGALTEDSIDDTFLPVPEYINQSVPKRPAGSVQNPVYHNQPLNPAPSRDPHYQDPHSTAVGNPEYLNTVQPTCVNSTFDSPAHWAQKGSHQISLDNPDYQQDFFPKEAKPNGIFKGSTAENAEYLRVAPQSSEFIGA
T1 sequence (P01133 971-1023 partner limits assumed): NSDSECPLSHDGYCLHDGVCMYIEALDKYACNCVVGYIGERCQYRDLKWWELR
T2 sequence (P09619 554-1106 limits assumed): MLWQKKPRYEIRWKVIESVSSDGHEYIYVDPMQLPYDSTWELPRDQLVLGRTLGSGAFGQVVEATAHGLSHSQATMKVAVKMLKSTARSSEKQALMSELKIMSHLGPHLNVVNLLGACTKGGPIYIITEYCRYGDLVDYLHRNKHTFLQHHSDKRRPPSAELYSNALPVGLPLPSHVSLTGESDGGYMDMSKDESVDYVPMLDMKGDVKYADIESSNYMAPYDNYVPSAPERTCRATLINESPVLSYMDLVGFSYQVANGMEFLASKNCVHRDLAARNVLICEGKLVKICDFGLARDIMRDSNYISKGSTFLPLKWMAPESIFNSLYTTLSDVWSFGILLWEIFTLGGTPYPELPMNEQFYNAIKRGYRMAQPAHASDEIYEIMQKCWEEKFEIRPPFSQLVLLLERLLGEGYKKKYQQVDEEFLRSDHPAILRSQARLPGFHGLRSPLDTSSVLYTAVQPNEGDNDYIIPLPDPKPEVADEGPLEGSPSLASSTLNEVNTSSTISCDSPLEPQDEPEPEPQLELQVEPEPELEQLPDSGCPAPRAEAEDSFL

Compound: CN1C(=S)C(C(=O)Nc2ccccc2)c2ccccc21 (stereo not drawn) [Compound 21, N-phenyl (1-methyl-2-thioxo-3-indolinyl)carboxamide]
- suppression of bFGF mediated tyrosine phosphorylation ([1]; Swiss 3T3, 10 to 50 mM): suppressed
- IC50 (MDA-231 breast): 15 µM
- suppression of PDGF mediated autophosphorylation of the PDGF receptor and tyrosine phosphorylation of other endogenous proteins [2]: suppressed
- IC50 (HT-29 colon): 55 µM
- IC50 (A549 lung): 30 µM
- IC50 (MDV-7 breast): 39 µM
- IC50 (MDA 468 breast): 43 µM
- IC50 (A431 epidermoid): 62 µM
- growth inhibition in words [3]: growth inhibitory
- IC50 [4, 10]: 64 µM
- IC50 ([4]; Swiss 3T3 fibroblasts, cell line table, read-out: IC50 cell growth inhibition): 64 µM
- IC50 (Swiss 3T3 fibroblasts; EGF): 2 µM
- IC50 (Swiss 3T3 fibroblasts; PDGF): 8 µM
- IC50 (Swiss 3T3 fibroblasts; bFGF): 13 µM
- IC50 (Swiss 3T3 fibroblasts; serum): 19 µM
- IC50 [5]: 1 µM
- suppression of EGF mediated phosphorylation of a variety of endogenous proteins [6]: suppressed

Compound: Cn1c(SSc2c(C(=O)Nc3ccccc3)c3ccccc3n2C)c(C(=O)Nc2ccccc2)c2ccccc21 [Compound 70, bis [N-phenyl 1-methylindolyl-3-carboxamide-(2)] disulfide]
- inhibition of bFGF mediated tyrosine phosphorylation (selectivity over EGF and PDGF) ([1]; Swiss 3T3, as low as 2 mM): more selective and inhibited only bFGF mediated tyrosine phosphorylation
- inhibition at 100 µM [7]: 1%
- IC50 [4, 10]: 12 µM
- IC50 (Swiss 3T3 fibroblasts; EGF): 3 µM
- IC50 (Swiss 3T3 fibroblasts; PDGF): 4 µM
- IC50 (Swiss 3T3 fibroblasts; bFGF): 3 µM
- IC50 (Swiss 3T3 fibroblasts; serum): 3 µM
- IC50 [5]: 8.6 µM

Compound: O=CN/C=C/c1cc(O)ccc1O [erbstatin]
- IC50 growth of A431 cells [8]: 3.6 µg/mL
- tumor growth inhibition [9]: inhibits the growth
